Series [1] in a line: Kinetic solubility by nephelometry. Format: physicochemical. To be noted: concentration range; for Sol2.0: 0.01 M HCl (approx. pH 2.0); for Sol6.5: pH 6.5 phosphate buffer.
The nature of series [2]: Cytotoxicity, growth inhibition of U-20S cells. Particulars: human. It counts as cell-based.
The nature of series [3]: Cytotoxicity, growth inhibition of HEK293 cells. Particulars: human, HEK293 cells (kidney). It counts as cell-based.
Series [4] in a line: Cytotoxicity, growth inhibition of HC-04 cells. Format: cell-based. To be noted: human, HC-04 cells (hepatocyte).
The nature of series [5]: Plasma exposure after single oral dose in non-infected mice. To be noted: single 100 mg/kg oral dose; for plasma concentration maintained over the 48 h sampling period / plasma concentration by ~18 h post-dose: non-infected mice; for plasma concentration maintained over the 48 h sampling period: up to 48 h post-dose; for systemic exposure (AUC to last measured concentration) relative to 1: fold higher than 1. It counts as in vivo, male Swiss outbred mice.

Series [6] concerns ex vivo S. mansoni. To be noted: cited from earlier work.
The conditions of series [7]: 46.3 mg/kg oral dose; cited from earlier work.
The conditions of series [8]: cited from earlier work.
In series [9] the test system is S. mansoni. Particulars: 400 mg/kg dose; cited from earlier work.

In the case of `O=C(Nc1ccc(F)c(C(F)(F)F)c1)Nc1ccc(F)c(C(F)(F)F)c1` [Compd 1], the Sol2.0 in series [1] was <1.6/<1.6 μg/mL. Besides, the Sol6.5 in [1] was <1.6/<1.6 μg/mL. The IC50 in series [2], in series [3] and in series [4] was above 100 µM each time. The “plasma concentration maintained over the 48 h sampling period” value in series [5] was “above 1 μM”.

For the compound `O=C(Nc1ccnc(C(F)(F)F)c1)Nc1ccnc(C(F)(F)F)c1` [Compd 2], in series [1], the Sol2.0 was 12.5–25/12.5–25 μg/mL. Also, the Sol6.5 in [1] is 12.5–25/12.5–25 μg/mL. Further, the IC50 in series [2], in [3] and in [4] was above 100 µM throughout. Also, the “systemic exposure (AUC to last measured concentration) relative to 1” value in [5] is given as 2–4 fold.

In [1], `O=C(Nc1ccncc1)Nc1ccncc1` [Compd 3] had a Sol6.5 of 12.5 to 25 µg/mL.

Turning to `O=C(Nc1cnccn1)Nc1cnccn1` [Compd 4], in series [1], the Sol2.0 is recorded as 6.3–12.5/6.3–12.5 μg/mL and the Sol6.5 was 6.3–12.5/6.3–12.5 μg/mL.

As for `O=C(Nc1ccc2c(c1)OC(F)(F)O2)Nc1ccc2c(c1)OC(F)(F)O2` [Compd 5], the Sol2.0 in [1] was <1.6/<1.6 μg/mL. Moreover, in series [1], the Sol6.5 is recorded as <1.6/<1.6 μg/mL. Besides, the 50% inhibitory concentration (IC50) in [2], in [3] and in series [4] was above 100 µM throughout. In addition, the “plasma concentration maintained over the 48 h sampling period” value in series [5] is above 5 µM.

With `O=C(Nc1ccncc1)Nc1ccc(F)c(C(F)(F)F)c1` [Compd 6], in series [1], the Sol2.0 is 6.3–12.5/6.3–12.5 μg/mL and the Sol6.5 was 6.3–12.5/6.3–12.5 μg/mL.

Take `O=C(Nc1cccnc1)Nc1ccc(F)c(C(F)(F)F)c1` [Compd 7]: in series [1], the Sol2.0 fell in the range of 50 to 100 µg/mL and the Sol6.5 lay within 12.5 to 25 µg/mL.

In series [1], `O=C(Nc1ccc(F)c(C(F)(F)F)c1)Nc1ccccn1` [Compd 8] had a Sol2.0 of 1.6 to 3.1 µg/mL.

As for `O=C(Nc1ccc(F)c(C(F)(F)F)c1)Nc1cnccn1` [Compd 9], the Sol2.0 in [1] is 1.6 to 3.1 µg/mL.

As to `Cc1cc(NC(=O)Nc2ccc(F)c(C(F)(F)F)c2)on1` [Compd 10], in series [1], the Sol2.0 was in the range of 12.5 to 25 µg/mL and the Sol6.5 was 6.3 to 12.5 µg/mL.

Take `O=C(Nc1ccc(C(=O)O)cc1)Nc1ccc(F)c(C(F)(F)F)c1` [Compd 11]: the Sol6.5 in series [1] fell in the range of 12.5 to 25 µg/mL.

In series [1], `O=C(Nc1cccc(C(=O)O)c1)Nc1ccc(F)c(C(F)(F)F)c1` [Compd 12] displayed a Sol2.0 of 1.6 to 3.1 µg/mL and a Sol6.5 of 12.5 to 25 µg/mL.

Turning to `NC(=O)c1ccc(NC(=O)Nc2ccc(F)c(C(F)(F)F)c2)cc1` [Compd 13], in [1], the Sol2.0 is reported as 6.3–12.5/6.3–12.5 μg/mL and the Sol6.5 is given as 6.3–12.5/6.3–12.5 μg/mL.

As to `NC(=O)c1ccccc1NC(=O)Nc1ccc(F)c(C(F)(F)F)c1` [Compd 14], in [1], the Sol2.0 is recorded as 1.6–3.1/1.6–3.1 μg/mL and the Sol6.5 was 1.6–3.1/1.6–3.1 μg/mL.

`N#Cc1ccc(NC(=O)Nc2ccc(F)c(C(F)(F)F)c2)cc1` [Compd 15]: the Sol2.0 in [1] was <1.6/<1.6 μg/mL. Besides, in series [1], the Sol6.5 is given as <1.6/<1.6 μg/mL. The half-maximal inhibitory concentration (IC50) in series [2], in series [3] and in series [4] was above 100 µM each time. For the same compound, in [5], the “plasma concentration by ~18 h post-dose” value is reported as “below 1 μM”.

Consider `CC(=O)c1ccc(NC(=O)Nc2ccc(F)c(C(F)(F)F)c2)cc1` [Compd 16], for which, in series [1], the Sol2.0 is on record as <1.6/<1.6 μg/mL and the Sol6.5 is recorded as <1.6/<1.6 μg/mL.

As for `O=C(Nc1ccc2c(c1)OC(F)(F)O2)Nc1ccc(F)c(C(F)(F)F)c1` [Compd 17], the Sol2.0 in series [1] is listed as <1.6/<1.6 μg/mL. The Sol6.5 in [1] is listed as <1.6/<1.6 μg/mL. Besides, the IC50 in [2], in series [3] and in [4] was above 100 µM each time. Further, the “plasma concentration maintained over the 48 h sampling period” value in [5] is above 5 µM.

Regarding `O=C(Nc1ccnc(C(F)(F)F)c1)Nc1ccc(F)c(C(F)(F)F)c1` [Compd 18], the Sol2.0 in series [1] was 3.1–6.3/3.1–6.3 μg/mL. Moreover, in series [1], the Sol6.5 was 3.1–6.3/3.1–6.3 μg/mL. In addition, the IC50 in series [2], in series [3] and in series [4] was above 100 µM throughout. For the same compound, the “systemic exposure (AUC to last measured concentration) relative to 1” value in series [5] is reported as 2–4 fold.

`N#Cc1ccc(NC(=O)Nc2ccnc(C(F)(F)F)c2)cc1` [Compd 19]: the Sol2.0 in [1] was 1.6–3.1/1.6–3.1 μg/mL. Moreover, the Sol6.5 in series [1] is given as 1.6–3.1/1.6–3.1 μg/mL. The IC50 in [2], in series [3] and in series [4] was above 100 µM throughout. In series [5], the “plasma concentration by ~18 h post-dose” value was “below 1 μM”.

With `O=C(Nc1ccnc(C(F)(F)F)c1)Nc1ccc2c(c1)OC(F)(F)O2` [Compd 20], the Sol2.0 in series [1] was 3.1–6.3/3.1–6.3 μg/mL. Moreover, the Sol6.5 in series [1] is reported as 3.1–6.3/3.1–6.3 μg/mL. Besides, the IC50 in series [2], in series [3] and in [4] was above 100 µM in each case. Also, in series [5], the “plasma concentration maintained over the 48 h sampling period” value is above 5 µM.

As to `O=C(Nc1ccc(Cl)c(Cl)c1)Nc1ccc(Cl)c(Cl)c1` [MMV665852], in [6], the “in vitro selectivity index” value is listed as 64 fold and the “potency against ex vivo S. mansoni relative to praziquantel (fold less potent)” value is 4 fold. The half-life in series [7] is given as 4.7 h. In [8], the LogD7.4 was 5.2.

As for `O=C(C1CCCCC1)N1CC(=O)N2CCc3ccccc3C2C1` (stereo not shown) [praziquantel], the worm burden reduction in series [9] is recorded as 96%.

The term IC50 denotes the concentration that inhibits the measured activity by half. What is called half-life is the time in which the quantity being followed falls by half.

The record behind these values is PMC6026081 (Bioorganic & medicinal chemistry letters, 2017).
